Legend:
[1] = molecular target: T1, Serine/threonine-protein kinase D2 (Homo sapiens) (UniProt Q9BZL6); assay: Inhibition of PKD2 at 1 uM; values are per cent of control
T1 sequence (whole entry): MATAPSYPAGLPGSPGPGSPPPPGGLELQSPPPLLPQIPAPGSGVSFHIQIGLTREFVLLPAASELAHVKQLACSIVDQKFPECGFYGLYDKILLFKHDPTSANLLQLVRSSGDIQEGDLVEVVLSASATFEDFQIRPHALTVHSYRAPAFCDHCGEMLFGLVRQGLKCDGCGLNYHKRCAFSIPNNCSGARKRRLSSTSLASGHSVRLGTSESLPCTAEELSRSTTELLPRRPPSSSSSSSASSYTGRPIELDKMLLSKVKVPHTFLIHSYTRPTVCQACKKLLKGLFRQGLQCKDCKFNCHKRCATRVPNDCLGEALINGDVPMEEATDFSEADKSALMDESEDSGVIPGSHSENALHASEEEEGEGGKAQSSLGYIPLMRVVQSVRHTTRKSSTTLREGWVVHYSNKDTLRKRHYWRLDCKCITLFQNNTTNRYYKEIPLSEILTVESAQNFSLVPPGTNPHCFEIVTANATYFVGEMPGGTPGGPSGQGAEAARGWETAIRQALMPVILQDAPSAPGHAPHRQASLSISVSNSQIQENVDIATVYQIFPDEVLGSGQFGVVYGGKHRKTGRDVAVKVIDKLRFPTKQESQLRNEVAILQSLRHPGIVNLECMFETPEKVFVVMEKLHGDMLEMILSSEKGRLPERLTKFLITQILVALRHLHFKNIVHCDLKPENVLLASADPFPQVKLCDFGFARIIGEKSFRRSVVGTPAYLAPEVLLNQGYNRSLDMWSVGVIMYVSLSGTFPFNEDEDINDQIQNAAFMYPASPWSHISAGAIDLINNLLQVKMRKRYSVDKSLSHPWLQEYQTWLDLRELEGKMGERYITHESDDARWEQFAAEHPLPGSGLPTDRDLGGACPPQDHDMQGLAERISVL

[2] = molecular target: T2, Dual specificity mitogen-activated protein kinase kinase 7 (Homo sapiens) (UniProt O14733); assay: Inhibition of MKK7beta at 0.1 uM; values are per cent of control
T2 sequence (whole entry): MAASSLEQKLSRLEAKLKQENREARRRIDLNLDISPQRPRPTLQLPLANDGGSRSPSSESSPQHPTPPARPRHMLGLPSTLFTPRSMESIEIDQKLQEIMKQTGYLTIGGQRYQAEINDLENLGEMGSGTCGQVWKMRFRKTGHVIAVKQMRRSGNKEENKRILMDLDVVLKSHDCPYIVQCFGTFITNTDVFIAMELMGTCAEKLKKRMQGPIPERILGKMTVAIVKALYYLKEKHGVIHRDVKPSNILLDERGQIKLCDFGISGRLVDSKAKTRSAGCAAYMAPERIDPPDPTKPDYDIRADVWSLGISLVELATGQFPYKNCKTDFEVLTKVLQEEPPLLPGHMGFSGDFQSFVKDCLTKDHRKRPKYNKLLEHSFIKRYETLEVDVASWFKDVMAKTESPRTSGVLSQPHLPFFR

[3] = molecular target: Myosin light chain kinase, smooth muscle (Homo sapiens) (UniProt Q15746); assay: Inhibition of MLCK at 0.1 uM; values are per cent of control
[4] = molecular target: T3, Tyrosine-protein kinase ITK/TSK (Homo sapiens) (UniProt Q08881); assay: Inhibition of Itk at 0.1 uM; values are per cent of control
T3 sequence (whole entry): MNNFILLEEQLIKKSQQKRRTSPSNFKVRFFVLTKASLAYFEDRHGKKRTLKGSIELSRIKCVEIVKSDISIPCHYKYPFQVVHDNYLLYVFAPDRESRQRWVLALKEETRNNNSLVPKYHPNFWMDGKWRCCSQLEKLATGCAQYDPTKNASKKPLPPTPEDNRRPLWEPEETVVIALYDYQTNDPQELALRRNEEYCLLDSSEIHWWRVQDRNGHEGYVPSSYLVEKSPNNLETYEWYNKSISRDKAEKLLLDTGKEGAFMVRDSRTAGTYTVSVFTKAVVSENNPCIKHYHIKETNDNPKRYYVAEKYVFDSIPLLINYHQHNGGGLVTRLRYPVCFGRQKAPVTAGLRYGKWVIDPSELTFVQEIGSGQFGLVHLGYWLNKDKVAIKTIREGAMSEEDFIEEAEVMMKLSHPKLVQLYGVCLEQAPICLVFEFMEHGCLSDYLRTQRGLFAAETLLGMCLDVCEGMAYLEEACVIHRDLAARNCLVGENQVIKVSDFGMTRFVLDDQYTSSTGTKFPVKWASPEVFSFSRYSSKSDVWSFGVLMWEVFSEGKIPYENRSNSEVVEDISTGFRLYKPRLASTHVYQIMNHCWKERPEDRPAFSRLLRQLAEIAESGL

[5] = molecular target: Tyrosine-protein kinase Fgr (Homo sapiens) (UniProt P09769); assay: Inhibition of Fgr at 0.1 uM; values are per cent of control
[6] = molecular target: T4, Mitogen-activated protein kinase kinase kinase 7 (Homo sapiens) (UniProt O43318); assay: Inhibition of TAK1 at 0.1 uM; values are per cent of control
T4 sequence (whole entry): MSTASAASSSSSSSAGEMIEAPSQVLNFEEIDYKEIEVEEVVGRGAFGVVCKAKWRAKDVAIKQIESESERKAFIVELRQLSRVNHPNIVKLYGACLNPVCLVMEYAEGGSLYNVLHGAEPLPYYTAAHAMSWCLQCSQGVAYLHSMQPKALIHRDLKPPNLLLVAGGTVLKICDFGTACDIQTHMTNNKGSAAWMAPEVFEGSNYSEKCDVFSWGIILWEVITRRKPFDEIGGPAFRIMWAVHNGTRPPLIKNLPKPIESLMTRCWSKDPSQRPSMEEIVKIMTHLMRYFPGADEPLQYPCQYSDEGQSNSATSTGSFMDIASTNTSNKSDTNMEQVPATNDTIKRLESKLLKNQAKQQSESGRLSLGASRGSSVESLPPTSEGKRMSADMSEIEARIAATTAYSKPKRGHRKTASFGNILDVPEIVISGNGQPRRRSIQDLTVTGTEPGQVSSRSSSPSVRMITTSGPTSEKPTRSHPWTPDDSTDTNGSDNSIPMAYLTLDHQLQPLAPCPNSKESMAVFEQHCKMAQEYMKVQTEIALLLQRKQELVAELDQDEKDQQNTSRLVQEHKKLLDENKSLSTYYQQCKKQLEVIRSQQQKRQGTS

[7] = molecular target: Interleukin-1 receptor-associated kinase 1 (Homo sapiens) (UniProt P51617); assay: Inhibition of IRAK1 at 0.1 uM; values are per cent of control
Chain of Interleukin-1 receptor-associated kinase 1 (Homo sapiens) (P51617 whole entry, looked up): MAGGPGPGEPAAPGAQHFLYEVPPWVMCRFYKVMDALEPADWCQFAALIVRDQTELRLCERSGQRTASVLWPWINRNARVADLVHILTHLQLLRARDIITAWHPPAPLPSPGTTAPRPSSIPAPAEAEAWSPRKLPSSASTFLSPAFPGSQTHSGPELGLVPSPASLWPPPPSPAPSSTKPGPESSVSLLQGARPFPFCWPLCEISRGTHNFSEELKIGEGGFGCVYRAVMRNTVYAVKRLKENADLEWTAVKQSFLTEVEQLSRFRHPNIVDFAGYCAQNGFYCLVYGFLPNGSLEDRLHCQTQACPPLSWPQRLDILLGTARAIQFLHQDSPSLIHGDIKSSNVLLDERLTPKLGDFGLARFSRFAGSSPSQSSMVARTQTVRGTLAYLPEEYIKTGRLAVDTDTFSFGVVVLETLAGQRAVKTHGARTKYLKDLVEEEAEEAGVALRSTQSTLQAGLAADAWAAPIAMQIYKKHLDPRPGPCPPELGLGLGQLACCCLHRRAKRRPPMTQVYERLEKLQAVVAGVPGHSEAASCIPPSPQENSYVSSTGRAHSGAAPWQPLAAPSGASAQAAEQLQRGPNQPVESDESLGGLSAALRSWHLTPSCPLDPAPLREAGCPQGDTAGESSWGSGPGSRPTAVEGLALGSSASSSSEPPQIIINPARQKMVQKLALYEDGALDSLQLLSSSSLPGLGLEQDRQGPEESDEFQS

Chain of Tyrosine-protein kinase Fgr (Homo sapiens) (P09769 2-529 limits assumed): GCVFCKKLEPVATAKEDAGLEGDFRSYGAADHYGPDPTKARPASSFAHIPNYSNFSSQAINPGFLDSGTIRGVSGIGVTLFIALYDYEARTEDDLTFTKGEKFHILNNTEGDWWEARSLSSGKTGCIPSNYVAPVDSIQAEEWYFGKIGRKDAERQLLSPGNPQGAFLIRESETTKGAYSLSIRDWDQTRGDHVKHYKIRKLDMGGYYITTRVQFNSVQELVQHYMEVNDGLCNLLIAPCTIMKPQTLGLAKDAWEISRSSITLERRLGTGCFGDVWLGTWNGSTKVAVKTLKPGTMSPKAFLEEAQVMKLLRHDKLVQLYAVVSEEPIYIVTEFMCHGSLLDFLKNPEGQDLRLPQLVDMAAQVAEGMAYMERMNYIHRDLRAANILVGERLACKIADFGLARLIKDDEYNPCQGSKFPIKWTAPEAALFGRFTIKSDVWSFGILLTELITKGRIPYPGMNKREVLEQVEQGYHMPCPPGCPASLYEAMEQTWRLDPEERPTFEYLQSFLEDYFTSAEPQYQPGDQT
Chain of Myosin light chain kinase, smooth muscle (Homo sapiens) (Q15746 whole entry): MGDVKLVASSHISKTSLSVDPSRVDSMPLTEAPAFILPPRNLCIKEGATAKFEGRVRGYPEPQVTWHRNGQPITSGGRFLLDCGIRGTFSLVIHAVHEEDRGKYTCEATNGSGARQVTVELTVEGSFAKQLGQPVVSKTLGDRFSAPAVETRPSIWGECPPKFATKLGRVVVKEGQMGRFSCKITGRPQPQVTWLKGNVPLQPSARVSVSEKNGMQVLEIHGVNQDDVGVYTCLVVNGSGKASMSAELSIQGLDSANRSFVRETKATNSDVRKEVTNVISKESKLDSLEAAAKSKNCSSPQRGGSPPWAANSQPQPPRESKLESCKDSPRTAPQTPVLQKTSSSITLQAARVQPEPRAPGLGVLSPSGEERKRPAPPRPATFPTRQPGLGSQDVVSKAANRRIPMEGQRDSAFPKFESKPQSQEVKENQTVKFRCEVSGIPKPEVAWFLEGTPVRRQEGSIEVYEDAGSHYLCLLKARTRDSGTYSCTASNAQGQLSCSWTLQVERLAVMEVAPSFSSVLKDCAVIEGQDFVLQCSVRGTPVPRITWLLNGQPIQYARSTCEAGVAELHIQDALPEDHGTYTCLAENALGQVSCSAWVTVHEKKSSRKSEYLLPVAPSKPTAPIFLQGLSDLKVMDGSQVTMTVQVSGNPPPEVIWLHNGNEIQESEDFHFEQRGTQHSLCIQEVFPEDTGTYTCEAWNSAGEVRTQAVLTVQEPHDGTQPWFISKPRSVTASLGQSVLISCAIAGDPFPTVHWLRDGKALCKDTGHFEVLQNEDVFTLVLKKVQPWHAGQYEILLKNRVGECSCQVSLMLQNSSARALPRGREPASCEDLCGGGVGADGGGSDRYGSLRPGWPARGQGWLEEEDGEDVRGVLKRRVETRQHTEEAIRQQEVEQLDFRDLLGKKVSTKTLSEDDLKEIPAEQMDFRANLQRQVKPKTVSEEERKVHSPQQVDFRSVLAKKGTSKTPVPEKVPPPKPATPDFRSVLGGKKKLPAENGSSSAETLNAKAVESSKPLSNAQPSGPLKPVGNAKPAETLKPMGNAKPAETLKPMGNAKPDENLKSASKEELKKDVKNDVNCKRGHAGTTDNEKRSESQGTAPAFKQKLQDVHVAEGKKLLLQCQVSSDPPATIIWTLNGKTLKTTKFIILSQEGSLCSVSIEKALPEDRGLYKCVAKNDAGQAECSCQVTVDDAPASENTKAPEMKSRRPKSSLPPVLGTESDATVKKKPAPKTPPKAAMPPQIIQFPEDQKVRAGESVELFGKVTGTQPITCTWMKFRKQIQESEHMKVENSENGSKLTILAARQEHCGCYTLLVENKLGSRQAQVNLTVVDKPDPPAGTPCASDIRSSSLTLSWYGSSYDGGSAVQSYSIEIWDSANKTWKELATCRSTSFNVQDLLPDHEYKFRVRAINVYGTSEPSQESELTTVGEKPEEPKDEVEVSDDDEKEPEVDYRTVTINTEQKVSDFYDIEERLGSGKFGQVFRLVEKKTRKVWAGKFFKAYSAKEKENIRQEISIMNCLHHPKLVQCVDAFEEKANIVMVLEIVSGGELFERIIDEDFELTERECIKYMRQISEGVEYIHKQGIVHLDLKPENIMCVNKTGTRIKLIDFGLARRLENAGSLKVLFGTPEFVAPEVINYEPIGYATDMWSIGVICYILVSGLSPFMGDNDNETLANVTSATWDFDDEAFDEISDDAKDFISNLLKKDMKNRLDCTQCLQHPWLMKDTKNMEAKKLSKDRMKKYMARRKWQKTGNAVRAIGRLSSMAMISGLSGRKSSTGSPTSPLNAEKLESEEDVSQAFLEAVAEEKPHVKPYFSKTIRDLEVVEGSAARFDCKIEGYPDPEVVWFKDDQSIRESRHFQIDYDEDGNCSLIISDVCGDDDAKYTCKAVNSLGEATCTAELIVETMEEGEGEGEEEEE

Row | residual activity [1] | residual activity [2] | residual activity [3] | residual activity [4] | residual activity [5] | residual activity [6] | residual activity [7] | Compound
1 | 80% | 103% | 89% | 14% | 2% | 84% | 47% | Cc1ccc2cc(-c3n[nH]c4ccc(NC5CCN(Cc6ccccc6)CC5)cc34)[nH]c2c1
2 | 12% | 98% | 86% | 41% | 0% | 73% | 56% | Cc1ccc2cc(-c3n[nH]c4ccc(NC5CCNC5)cc34)[nH]c2c1 (centres undefined)

From ChEMBL document CHEMBL1681705, “Optimisation of ITK inhibitors through successive iterative design cycles” (Bioorg Med Chem Lett, 2011)
